Where “and” joins values, the source holds several entries; their conditions need not be identical. Equal entries are not always repeated.
What was measured:
MoAb CSA-1H6 = experiment: Inhibition ELISA to the CSA-DVS-HSA conjugate, MoAb; assay type: binding, mouse
Experimental: (§1) Inhibition ELISA Protocol:
(§2) 1. Use Falcon Pro-bind immunoplates.
(§3) 2. Dilute coating antigen to 1 μg/mL in carbonate-bicarbonate buffer. Add 100 μL per well and incubate overnight at 4° C.
(§4) 3. On the same day prepare inhibiting antigen tubes. Aliquot antibodies into glass test tubes. Prepare appropriate antigen concentration in ethanol and add to aliquoted antibody at 10 μL ethanol solution/250 μL antibody. Vortex tubes and incubate overnight at 4° C.
(§5) 4. Shake out wells and wash 3× with 200 μL PBS/0.05% TWEEN™ (polyoxyethylene-sorbitol) (v/v) per well.
(§6) 5. Add 200 μL blocking buffer per well (PBS/2% BSA (w/v)). Incubate 60 min at room temperature.
(§7) 7. Transfer contents of inhibition tubes to antigen-coated plate, 100 μL per well. Incubate 60 min at 37° C.
(§8) 9. Dilute alkaline phosphatase conjugated anti-mouse IgG (Pierce cat#31322) in PBS/0.1% TWEEN™ (polyoxyethylene-sorbitol) (v/v) to 1:5000 concentration. Add 100 μL per well and incubate at 37° C. for 60 min.
(§9) 11. […] Add 100 μL per well and incubate in the dark at room temperature. Absorbance can be read at 405 nm at approximately 15-min intervals.

MoAb CSA-2G9 = experiment: as above; assay type: binding, mouse
Experimental: as §1, §2, §3, §4, §5, §6, §7, §8, §9

MoAb AM1-2E10 = experiment: as above; assay type: binding, mouse
Experimental: as §1, §2, §3, §4, §5, §6, §7
(§10) 9. […] Add 100 μL per well and incubate at 37° C. for 60 min.
as §9

MoAb AM1-7F5 = experiment: as above; assay type: binding, mouse
Experimental: as §1, §2, §3, §4, §5, §6, §7, §10, §9

[1] = test system: Mouse polyclonal sera (CSA-DVS-KLH immunogen); experiment: Inhibition ELISA, CSA-DVS-HSA coated plate, mouse polyclonal sera; assay type: binding; settings: Mouse sera; Table 3; inhibition ELISA to the CSA-DVS-HSA conjugate
Experimental: as §1, §2, §3, §4, §5, §6, §7, §10, §9

[2] = test system: Mouse polyclonal sera (AM1-DVS-KLH immunogen); experiment: Inhibition ELISA to the CSA-DVS-HSA conjugate, mouse polyclonal sera; assay type: binding
Experimental: as §1, §2, §3, §4, §5, §6, §7, §10, §9

[3] = test system: Mouse polyclonal sera (AM19-1-DVS (1) - KLH immunogen); experiment: Inhibition ELISA, AM19-1-DVS (1) HSA coated plate, mouse polyclonal sera; assay type: binding
Experimental: as §1, §2, §3, §4, §5, §6, §7, §10, §9

[4] = test system: Mouse polyclonal sera (AM19-1-DVS (2) - KLH immunogen); experiment: Inhibition ELISA, AM19-1-DVS (2) HSA coated plate, mouse polyclonal sera; assay type: binding
Experimental: as §1, §2, §3, §4, §5, §6, §7, §10, §9

[5] = test system: Rabbit polyclonal sera (AM19-1-DVS-KLH (1) immunogen); experiment: Inhibition ELISA, AM19-1-DVS (1) HSA coated plate, rabbit polyclonal sera; assay type: binding
Experimental: as §1, §2, §3, §4, §5, §6, §7, §10, §9
The AM19-1-DVS (1) conjugate was also used to immunize rabbits.

[6] = test system: Mouse polyclonal sera (AM19-9-DVS-KLH immunogen); experiment: Inhibition ELISA, AM19-9-DVS-HSA coated plates, mouse polyclonal sera; assay type: binding
Experimental: as §1, §2, §3, §4, §5, §6, §7, §10, §9

[7] = test system: Mouse polyclonal sera (AM9-9-DVS-KLH immunogen); experiment: Inhibition ELISA, AM19-9-DVS-HSA coated plate, mouse polyclonal sera; assay type: binding
Experimental: as §1, §2, §3, §4, §5, §6, §7, §10, §9

MoAb AM19-1-7E12-1 = experiment: Inhibition ELISA with AM19-1-DVS (1) coated ELISA plates, MoAb; assay type: binding, mouse; settings: AM19-1-7E12-1 TCS
Experimental: as §1, §2, §3, §4, §5, §6, §7, §10, §9

MoAb AM19-1-7E12-2 = experiment: as above; assay type: binding, mouse; settings: AM19-1-7F12-2
Experimental: as §1, §2, §3, §4, §5, §6, §7, §10, §9

Structure (SMILES): C/C=C/C[C@@H](C)[C@@H](O)[C@H]1C(=O)N[C@@H](CCC)C(=O)N(C)CC(=O)N(C)[C@@H](CC(C)C)C(=O)N[C@@H](C(C)C)C(=O)N(C)[C@@H](CC(C)C)C(=O)N[C@@H](C)C(=O)N[C@H](C)C(=O)N(C)[C@@H](CC(C)C)C(=O)N(C)[C@@H](CC(C)C)C(=O)N(C)[C@@H](C(C)C)C(=O)N1C [CSG, cyclosporine G]
- Percent Inhibition (MoAb CSA-1H6; CSA-1H6, Table 24, CSA, CSG and CSA derivative inhibitors): 88.6%
- Percent Inhibition (MoAb CSA-2G9; CSA-2G9, Table 24, CSA, CSG and CSA derivative inhibitors): 89.8%
- Percent Inhibition (MoAb AM1-2E10; AM1-2E10, Table 24, CSA, CSG and CSA derivative inhibitors): 61% and 61.2%
- Percent Inhibition (MoAb AM1-7F5; AM1-7F5, Table 24, CSA, CSG and CSA derivative inhibitors): 28.8%

Structure (SMILES): C=CC[C@@H]1/C=C(\C)C[C@H](C)C[C@H](OC)[C@H]2O[C@@](O)(C(=O)C(=O)N3CCCC[C@H]3C(=O)O[C@H](/C(C)=C/[C@@H]3CC[C@@H](O)[C@H](OC)C3)[C@H](C)[C@@H](O)CC1=O)[C@H](C)C[C@@H]2OC [FK, tacrolimus]
- Percent Inhibition [1]: 31.9%
- Percent Inhibition ([2]; Mouse 1): 3.5%
- Percent Inhibition ([2]; Mouse 2): 13.0%
- Percent Inhibition ([3]; Mouse 1): 0%
- Percent Inhibition ([3]; Mouse 2): 0%
- Percent Inhibition ([4]; Mouse 3): 0%
- Percent Inhibition ([4]; Mouse 4): 0%
- Percent Inhibition [5]: 0%
- Percent Inhibition ([6]; Mouse 5): 0%
- Percent Inhibition ([6]; Mouse 6): 0%
- Percent Inhibition ([7]; Mouse 1): 24.2%
- Percent Inhibition ([7]; Mouse 2): 34.5%
- Percent Inhibition of TCS (MoAb CSA-1H6; CSA-1H6 TCS, Table 16, CSA-DVS-HSA conjugate): 0%
- Percent Inhibition of TCS (MoAb CSA-2G9; CSA-2G9 TCS, Table 16, CSA-DVS-HSA conjugate): 10.8%
- Percent Inhibition of TCS (MoAb AM1-2E10; AM1-2E10 TCS, Table 18, CSA-DVS-HSA coated plate): 0%
- Percent Inhibition of TCS (MoAb AM1-7F5; AM1-7F51, TCS, Table 18, CSA-DVS-HSA coated plate): 26.0%
- Percent Inhibition of TCS (MoAb AM19-1-7E12-1): 6.3%
- Percent Inhibition of TCS (MoAb AM19-1-7E12-2): 3.2%

Source: patent publication US6713266B1 (Isodiagnostika Inc., priority 1998, dated 2004)
